These results are taken from article PMC5357639 (Frontiers in Chemistry, 2017).

Entries after “also recorded” stand apart in the source; their conditions may differ. Read-outs that look alike come from different tables or passages of the source. Where a SMILES comes first, the peptide text is derived from it. The star is where a group is joined. Orn(α-tetramethylguanidino) = CN(C)C(=N[C@@H](CCCN)C(=O)*)N(C)C

In data set [1] the test system is E. coli ATCC 25922. The conditions noted are these: ref Czihal et al., 2012, cited from earlier work. The text has this: Antimicrobial peptides (AMPs) are considered as promising alternatives to common antibiotics that threateningly lose their therapeutic potentials against multidrug-resistant pathogens (Fox, [2013]; Wang et al., [2015]). In contrast to approved therapeutic peptide hormones, antimicrobial peptides have to be administered at much higher doses, which may amplify general drawbacks of peptide therapeutics. […] Api137 appeared more efficient in this septicemia model due to the better scores obtained at ... || Apidaecin analogs Api88 and Api137 are similarly active against Gram-negative bacteria with a tendency of higher activity of Api88 against K. pneumoniae (Czihal et al., [2012]; Berthold et al., [2013]). However, Api88 carries a C-terminal amide that is responsible for its very fast proteolytic cleavage in serum, the supernatant obtained after complete coagulation and centrifugation of blood. The in vitro serum stability assay, which is an important in vitro criterion to select therapeutic peptides for systemic applications, yielded very short half-life times of 5 min for Api88, which indicate ...

Data set [2] concerns E. coli ATCC 25922. The data set can be described thus: Systemic septicemia infection mouse model (lethal intraperitoneal E. coli infection). It is filed as in vivo, NMRI mice. The method, then:
(§1) The acute toxicity of Api137 was studied by administering doses of 20, 40, 80, and 120 mg/kg intraperitoneally (i.p.) four times daily (0, 3, 7, and 24 h) into female NMRI mice (24–32 g, ~7 weeks old). For in vivo efficacy, female NMRI mice (high dose experiment: 24–27.1 g, 6 weeks; low dose experiment: 26.8–30.3 g, 7 weeks) were infected intraperitoneal with E. coli ATCC 25922, as described before (Czihal et al., [2012]; Knappe et al., [2012]). Briefly, each mouse was infected with 9 × 10^5 bacteria in the presence of 2.5% (w/v) mucin (0.3 mL in total). Mucin restricts acute macrophage activation in the intraperitoneal space and promotes establishment of a reproducible infection (Frimodt-Møller et al., [1999]). Mice were observed three times daily for their health status for a total of 5 days post-infection and weighed 1 day before and 1 and 5 days after infection. In accordance with the guidelines of the Animal Care and Usage Committee of the Landesdirektion Leipzig, moribund mice were euthanized.
Apidaecin Api137 (high dose experiment: 2.5 and 1.25 mg/kg body weight; low dose experiment: 0.6 and 0.3 mg/kg body weight) was administered intraperitoneal (0.3 mL) in seven mice per group three times post-infection (1, 4, and 8 h) as antibacterial therapy. Each experiment included seven mice receiving ciprofloxacin (40 mg/kg body weight) and four mice receiving only the vehicle (5% glucose in water, w/v) as positive and negative controls, respectively.

A short description of data set [3]: Acute toxicity, intraperitoneal administration. It is filed as in vivo, NMRI mice. The method, then:
as §1

Data set [4] is described as follows: Peptide recovery in spiked blood and organ homogenates. In kind it is in vitro ADME, NMRI mice. The conditions noted are these: LC-MS MRM, mean n = 3. The method, then:
plasma samples and organ homogenates relative to equally concentrated peptide solutions in pure w ater. Concentrations of samples below the LOQ but still detectable were set to the value of the LOD, whereas signals with peak hei ghts below the LOD were set to 0 µg/m L.
Method M3: Recovery rates in plasma and organ homogenates
Li -heparin blood samples obtained from untreated NMRI mice were spiked with Api88 or Api137 (final concentrations: 2.5 or 10 µ g/ m L), incubated (10 min, RT), and centrifuged (2,000x g, 3 min, RT) to obtain plasma. […]
500 µ L, 0.2 or 2 µg/m L, l iver: 500 µ L, 1 or 2.5 µ g/m L, kidne ys: 500 µ L, 20 or 60 µg/m L). […] Recoveries were calculated b y assumin g a total blood (plasma) volume of 75 (25) m L per k g mouse weight 3 and that the measured organ weight (in g) corresponds to the organ volume (in m L). […]
Apidaecin peptides were selectively and sensitively quantified based on the methods established for oncocins Onc72 and Onc112 (Sch midt R. et al J AC 2016). […]
Table S12. Recover y rates of Api88 and Api137 determined in plasma and organ homogenates (n = 3) collected from untreated NMRI mice. […]
500 µ L, 1 or 2.5 µg/m L, kidneys: 500 µ L, 20 o r 60 µg/m L) were added p rior to homogenization and centrifugation. […] The total peptide amount in mice was calculated from the recover y rates shown […]

Turning to `CC[C@H](C)[C@H](NC(=O)[C@H](Cc1ccc(O)cc1)NC(=O)[C@@H](NC(=O)[C@@H]1CCCN1C(=O)[C@H](CCCNC(=N)N)NC(=O)[C@H](CC(N)=O)NC(=O)[C@H](CC(N)=O)NC(=O)[C@H](CCCN)N=C(N(C)C)N(C)C)C(C)C)C(=O)N1CCC[C@H]1C(=O)N[C@@H](CCCNC(=N)N)C(=O)N1CCC[C@H]1C(=O)N[C@@H](CCCNC(=N)N)C(=O)N1CCC[C@H]1C(=O)N1CCC[C@H]1C(=O)N[C@@H](Cc1c[nH]cn1)C(=O)N1CCC[C@H]1C(=O)N[C@@H](CCCNC(=N)N)C(=O)N[C@@H](CC(C)C)C(N)=O` [Api88] ({Orn(α-tetramethylguanidino)}-NNRPVYIPRPRPPHPRL-NH2), in the data set with E. coli ATCC 25922 [1] (2.5 and 1.25 mg/kg i.p.), the Survival entry is “rescued all NMRI mice”. For the same compound, the “Dose rescuing all mice” value in the data set with E. coli ATCC 25922 [1] (same infection model) was 1.25 mg/kg.
`CC[C@H](C)[C@H](NC(=O)[C@H](Cc1ccc(O)cc1)NC(=O)[C@@H](NC(=O)[C@@H]1CCCN1C(=O)[C@H](CCCNC(=N)N)NC(=O)[C@H](CC(N)=O)NC(=O)[C@H](CC(N)=O)NC(=O)[C@H](CCCN)N=C(N(C)C)N(C)C)C(C)C)C(=O)N1CCC[C@H]1C(=O)N[C@@H](CCCNC(=N)N)C(=O)N1CCC[C@H]1C(=O)N[C@@H](CCCNC(=N)N)C(=O)N1CCC[C@H]1C(=O)N1CCC[C@H]1C(=O)N[C@@H](Cc1c[nH]cn1)C(=O)N1CCC[C@H]1C(=O)N[C@@H](CCCNC(=N)N)C(=O)N[C@@H](CC(C)C)C(=O)O` [Api137] ({Orn(α-tetramethylguanidino)}-NNRPVYIPRPRPPHPRL-OH): the Survival entry in the data set with E. coli ATCC 25922 [2] (0.3 mg/kg i.p. three times post-infection (1, 4, 8 h), n = 7) was “four out of seven mice”; with E. coli ATCC 25922 [2] (0.6 mg/kg (and higher) i.p. three times post-infection (1, 4, 8 h), n = 7, 5 days observation) it was “rescued all NMRI mice; also recorded: rescuing all animals”; in data set [3] (120 mg/kg per injection i.p. four times, observation period 5 days) it was “all mice survived”. The “Dose rescuing all mice” value in the data set on E. coli ATCC 25922 [2] (i.p. three times post-infection) was found to be 0.6 mg/kg. Further, the ED50 in the data set with E. coli ATCC 25922 [2] (i.p. three times post-infection (1, 4, 8 h), approximate) is approximately 0.3 mg/kg. In addition, the Adverse side effects entry was “signs of discomfort in some animals and decreased mobility for up to 20 min after administration” in data set [3] (120 mg/kg per injection i.p. four times (0, 3, 7, 24 h)); “none of the seven animals per dose group showed any signs of adverse side effects” in data set [3] (20, 40 and 80 mg/kg per injection i.p. four times (0, 3, 7, 24 h), seven animals per dose group). Besides, in data set [4] (peptide 20 µg/mL in 500 µL PBS with protease inhibitor added prior to homogenization), the “Recovery rate, Kidney, low concentration” value worked out at 3.5 ± 0.4%. Besides, in data set [4] (peptide 60 µg/mL in 500 µL PBS with protease inhibitor added prior to homogenization), the “Recovery rate, Kidney, high concentration” value was 2.7 ± 0.7%.
